Assay results from PubChem BioAssay (NCI).
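Assay format: 96-well plates, 48-hour exposure. TGI is the concentration that stops growth completely.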

Experiments:
Experiment in all cases: NCI-60 cell line screen, 48 h
786-0 renal = system: 786-0 renal
A549 NSCLC = system: A549 NSCLC
ACHN renal = system: ACHN renal
CAKI-1 renal = system: CAKI-1 renal
CCRF-CEM leukemia = system: CCRF-CEM leukemia
COLO 205 colon = system: COLO 205 colon
DLD-1 colon = system: DLD-1 colon
DMS 114 small cell lung = system: DMS 114 small cell lung
DMS 273 small cell lung = system: DMS 273 small cell lung
EKVX NSCLC = system: EKVX NSCLC
HCC-2998 colon = system: HCC-2998 colon
HCT-116 colon = system: HCT-116 colon
HCT-15 colon = system: HCT-15 colon
HOP-18 NSCLC = system: HOP-18 NSCLC
HOP-62 NSCLC = system: HOP-62 NSCLC
HOP-92 NSCLC = system: HOP-92 NSCLC
K-562 leukemia = system: K-562 leukemia
KM12 colon = system: KM12 colon
KM20L2 colon = system: KM20L2 colon
LOX IMVI melanoma = system: LOX IMVI melanoma
LXFL 529 NSCLC = system: LXFL 529 NSCLC
M19-MEL melanoma = system: M19-MEL melanoma
MALME-3M melanoma = system: MALME-3M melanoma
MOLT-4 leukemia = system: MOLT-4 leukemia
NCI-H226 lung = system: NCI-H226 lung
NCI-H23 lung = system: NCI-H23 lung
NCI-H522 lung = system: NCI-H522 lung
OVCAR-3 ovarian = system: OVCAR-3 ovarian
OVCAR-4 ovarian = system: OVCAR-4 ovarian
OVCAR-5 ovarian = system: OVCAR-5 ovarian
RPMI-8226 leukemia = system: RPMI-8226 leukemia
RXF 393 renal = system: RXF 393 renal
SF-268 CNS = system: SF-268 CNS
SF-539 CNS = system: SF-539 CNS
SK-MEL-2 melanoma = system: SK-MEL-2 melanoma
SK-MEL-28 melanoma = system: SK-MEL-28 melanoma
SK-MEL-5 melanoma = system: SK-MEL-5 melanoma
SN12C renal = system: SN12C renal
SNB-19 CNS = system: SNB-19 CNS
SNB-78 CNS = system: SNB-78 CNS
SR leukemia = system: SR leukemia
SW-620 colon = system: SW-620 colon
TK-10 renal = system: TK-10 renal
U251 CNS = system: U251 CNS
UO-31 renal = system: UO-31 renal
XF 498 CNS = system: XF 498 CNS
HL-60(TB) leukemia = system: HL-60(TB) leukemia
HT29 colon = system: HT29 colon
IGROV1 ovarian = system: IGROV1 ovarian
M14 melanoma = system: M14 melanoma
NCI-H460 lung = system: NCI-H460 lung
OVCAR-8 ovarian = system: OVCAR-8 ovarian
SF-295 CNS = system: SF-295 CNS
SK-OV-3 ovarian = system: SK-OV-3 ovarian
SNB-75 CNS = system: SNB-75 CNS
UACC-257 melanoma = system: UACC-257 melanoma
UACC-62 melanoma = system: UACC-62 melanoma
A498 renal = system: A498 renal
RXF-631 renal = system: RXF-631 renal

`Cc1ccc(C(c2c(O)c3ccccc3n(-c3ccccc3)c2=O)c2c(O)c3ccccc3n(-c3ccccc3)c2=O)cc1` showed a TGI (786-0 renal) greater than 100 µM, a TGI (A549 NSCLC) greater than 100 µM and a TGI (ACHN renal) greater than 100 µM. The TGI (CAKI-1 renal) was greater than 100 µM, the TGI (CCRF-CEM leukemia) was greater than 100 µM and the TGI (COLO 205 colon) was greater than 100 µM. It also gave a TGI (DLD-1 colon) greater than 100 µM, a TGI (DMS 114 small cell lung) greater than 100 µM and a TGI (DMS 273 small cell lung) greater than 100 µM. It also gave a TGI (EKVX NSCLC) greater than 100 µM, a TGI (HCC-2998 colon) greater than 100 µM and a TGI (HCT-116 colon) greater than 100 µM. For the same compound, the TGI (HCT-15 colon) was greater than 100 µM, the TGI (HOP-18 NSCLC) was greater than 100 µM and the TGI (HOP-62 NSCLC) was greater than 100 µM. For the same compound, the TGI (HOP-92 NSCLC) was greater than 100 µM, the TGI (K-562 leukemia) was greater than 100 µM and the TGI (KM12 colon) was greater than 100 µM. The TGI (KM20L2 colon) was greater than 100 µM, the TGI (LOX IMVI melanoma) was greater than 100 µM and the TGI (LXFL 529 NSCLC) was greater than 100 µM. For the same compound, the TGI (M19-MEL melanoma) was greater than 100 µM, the TGI (MALME-3M melanoma) was greater than 100 µM and the TGI (MOLT-4 leukemia) was greater than 100 µM. For the same compound, the TGI (NCI-H226 lung) was greater than 100 µM, the TGI (NCI-H23 lung) was greater than 100 µM and the TGI (NCI-H522 lung) was greater than 100 µM. The TGI (OVCAR-3 ovarian) was greater than 100 µM, the TGI (OVCAR-4 ovarian) was greater than 100 µM and the TGI (OVCAR-5 ovarian) was greater than 100 µM. It also gave a TGI (RPMI-8226 leukemia) greater than 100 µM, a TGI (RXF 393 renal) greater than 100 µM and a TGI (SF-268 CNS) greater than 100 µM. It also gave a TGI (SF-539 CNS) greater than 100 µM, a TGI (SK-MEL-2 melanoma) greater than 100 µM and a TGI (SK-MEL-28 melanoma) greater than 100 µM. It also gave a TGI (SK-MEL-5 melanoma) greater than 100 µM, a TGI (SN12C renal) greater than 100 µM and a TGI (SNB-19 CNS) greater than 100 µM. The TGI (SNB-78 CNS) was greater than 100 µM, the TGI (SR leukemia) was greater than 100 µM and the TGI (SW-620 colon) was greater than 100 µM. It also gave a TGI (TK-10 renal) greater than 100 µM, a TGI (U251 CNS) greater than 100 µM and a TGI (UO-31 renal) greater than 100 µM. The TGI (XF 498 CNS) was greater than 100 µM.
`O=C(c1nc2ccccc2[nH]c1=O)C(O)c1ccco1` (stereo not given) gave a TGI (786-0 renal) greater than 100 µM, a TGI (A549 NSCLC) greater than 100 µM and a TGI (ACHN renal) greater than 100 µM. The TGI (CCRF-CEM leukemia) was greater than 100 µM, the TGI (COLO 205 colon) was greater than 100 µM and the TGI (DMS 114 small cell lung) was greater than 100 µM. The TGI (DMS 273 small cell lung) was greater than 100 µM, the TGI (EKVX NSCLC) was greater than 100 µM and the TGI (HCC-2998 colon) was greater than 100 µM. It also gave a TGI (HCT-116 colon) greater than 100 µM, a TGI (HCT-15 colon) greater than 100 µM and a TGI (HL-60(TB) leukemia) greater than 100 µM. It also gave a TGI (HOP-62 NSCLC) greater than 100 µM, a TGI (HOP-92 NSCLC) greater than 100 µM and a TGI (HT29 colon) greater than 100 µM. The TGI (IGROV1 ovarian) was greater than 100 µM, the TGI (K-562 leukemia) was greater than 100 µM and the TGI (KM12 colon) was greater than 100 µM. It also gave a TGI (KM20L2 colon) greater than 100 µM, a TGI (LOX IMVI melanoma) greater than 100 µM and a TGI (LXFL 529 NSCLC) greater than 100 µM. For the same compound, the TGI (M14 melanoma) was greater than 100 µM, the TGI (M19-MEL melanoma) was greater than 100 µM and the TGI (MALME-3M melanoma) was greater than 100 µM. It also gave a TGI (MOLT-4 leukemia) greater than 100 µM, a TGI (NCI-H226 lung) greater than 100 µM and a TGI (NCI-H23 lung) greater than 100 µM. The TGI (NCI-H460 lung) was greater than 100 µM, the TGI (NCI-H522 lung) was greater than 100 µM and the TGI (OVCAR-3 ovarian) was greater than 100 µM. It also gave a TGI (OVCAR-4 ovarian) greater than 100 µM, a TGI (OVCAR-5 ovarian) greater than 100 µM and a TGI (OVCAR-8 ovarian) greater than 100 µM. It also gave a TGI (RPMI-8226 leukemia) greater than 100 µM, a TGI (RXF 393 renal) greater than 100 µM and a TGI (SF-268 CNS) greater than 100 µM. It also gave a TGI (SF-295 CNS) greater than 100 µM, a TGI (SF-539 CNS) greater than 100 µM and a TGI (SK-MEL-2 melanoma) greater than 100 µM. It also gave a TGI (SK-MEL-28 melanoma) greater than 100 µM, a TGI (SK-MEL-5 melanoma) greater than 100 µM and a TGI (SK-OV-3 ovarian) greater than 100 µM. For the same compound, the TGI (SN12C renal) was greater than 100 µM, the TGI (SNB-19 CNS) was greater than 100 µM and the TGI (SNB-75 CNS) was greater than 100 µM. The TGI (SNB-78 CNS) was greater than 100 µM, the TGI (SW-620 colon) was greater than 100 µM and the TGI (TK-10 renal) was greater than 100 µM. For the same compound, the TGI (U251 CNS) was greater than 100 µM, the TGI (UACC-257 melanoma) was greater than 100 µM and the TGI (UACC-62 melanoma) was greater than 100 µM. For the same compound, the TGI (UO-31 renal) was greater than 100 µM and the TGI (XF 498 CNS) was greater than 100 µM.
Work on `COc1cc(C2c3cc4c(cc3[C@H](NS(C)(=O)=O)C3COC(=O)[C@H]23)OCO4)cc(OC)c1OC` (stereo not given in full) yielded a TGI (786-0 renal) greater than 100 µM, a TGI (ACHN renal) greater than 100 µM and a TGI (CCRF-CEM leukemia) greater than 100 µM. For the same compound, the TGI (COLO 205 colon) was 0.436 µM, the TGI (DLD-1 colon) was greater than 100 µM and the TGI (DMS 273 small cell lung) was greater than 100 µM. The TGI (HCC-2998 colon) was greater than 100 µM, the TGI (HCT-15 colon) was greater than 100 µM and the TGI (HL-60(TB) leukemia) was 0.883 µM. The TGI (HOP-18 NSCLC) was greater than 100 µM, the TGI (HT29 colon) was greater than 100 µM and the TGI (K-562 leukemia) was greater than 100 µM. For the same compound, the TGI (KM12 colon) was greater than 100 µM, the TGI (LOX IMVI melanoma) was greater than 100 µM and the TGI (LXFL 529 NSCLC) was greater than 100 µM. The TGI (M14 melanoma) was greater than 100 µM, the TGI (MALME-3M melanoma) was greater than 100 µM and the TGI (MOLT-4 leukemia) was 18.5 µM. The TGI (NCI-H226 lung) was 0.625 µM, the TGI (NCI-H460 lung) was greater than 100 µM and the TGI (OVCAR-5 ovarian) was greater than 100 µM. It also gave a TGI (OVCAR-8 ovarian) greater than 100 µM, a TGI (RPMI-8226 leukemia) of 46.3 µM and a TGI (SF-268 CNS) greater than 100 µM. It also gave a TGI (SK-MEL-2 melanoma) greater than 100 µM, a TGI (SN12C renal) greater than 100 µM and a TGI (SR leukemia) greater than 100 µM. The TGI (TK-10 renal) was greater than 100 µM, the TGI (UACC-257 melanoma) was greater than 100 µM and the TGI (UACC-62 melanoma) was greater than 100 µM. For the same compound, the TGI (UO-31 renal) was greater than 100 µM and the TGI (XF 498 CNS) was greater than 100 µM.
For `O=C1NC(=O)C(C(=O)C(=O)Nc2ccc(Cl)cc2Cl)C(=O)N1`, the TGI (786-0 renal) was greater than 100 µM, the TGI (A498 renal) was greater than 100 µM and the TGI (A549 NSCLC) was greater than 100 µM. The TGI (ACHN renal) was greater than 100 µM, the TGI (CAKI-1 renal) was greater than 100 µM and the TGI (CCRF-CEM leukemia) was greater than 100 µM. The TGI (COLO 205 colon) was greater than 100 µM, the TGI (DLD-1 colon) was greater than 100 µM and the TGI (DMS 114 small cell lung) was greater than 100 µM. The TGI (EKVX NSCLC) was greater than 100 µM, the TGI (HCC-2998 colon) was greater than 100 µM and the TGI (HCT-116 colon) was greater than 100 µM. It also gave a TGI (HCT-15 colon) greater than 100 µM, a TGI (HL-60(TB) leukemia) greater than 100 µM and a TGI (HOP-62 NSCLC) greater than 100 µM. For the same compound, the TGI (HOP-92 NSCLC) was greater than 100 µM, the TGI (IGROV1 ovarian) was greater than 100 µM and the TGI (K-562 leukemia) was greater than 100 µM. It also gave a TGI (KM12 colon) greater than 100 µM, a TGI (KM20L2 colon) greater than 100 µM and a TGI (LXFL 529 NSCLC) greater than 100 µM. The TGI (M14 melanoma) was greater than 100 µM, the TGI (M19-MEL melanoma) was greater than 100 µM and the TGI (MALME-3M melanoma) was greater than 100 µM. It also gave a TGI (MOLT-4 leukemia) greater than 100 µM, a TGI (NCI-H460 lung) greater than 100 µM and a TGI (OVCAR-3 ovarian) greater than 100 µM. It also gave a TGI (OVCAR-4 ovarian) greater than 100 µM, a TGI (OVCAR-5 ovarian) greater than 100 µM and a TGI (OVCAR-8 ovarian) greater than 100 µM. For the same compound, the TGI (RPMI-8226 leukemia) was greater than 100 µM, the TGI (RXF-631 renal) was greater than 100 µM and the TGI (SF-295 CNS) was greater than 100 µM. For the same compound, the TGI (SK-MEL-2 melanoma) was greater than 100 µM, the TGI (SK-MEL-5 melanoma) was greater than 100 µM and the TGI (SK-OV-3 ovarian) was greater than 100 µM. The TGI (SNB-19 CNS) was greater than 100 µM, the TGI (SNB-78 CNS) was greater than 100 µM and the TGI (SW-620 colon) was greater than 100 µM. The TGI (TK-10 renal) was greater than 100 µM, the TGI (U251 CNS) was greater than 100 µM and the TGI (UACC-257 melanoma) was greater than 100 µM. The TGI (UACC-62 melanoma) was greater than 100 µM and the TGI (UO-31 renal) was greater than 100 µM.
